Reference: patent publication US20180325947A1, “USE OF MAPK INHIBITORS TO REDUCE LOSS OF HEMATOPOIETIC STEM CELLS DURING EX VIVO CULTURE AND/OR GENETIC MANIPULATION” (Children's Hospital Medical Center, priority 2015, published 2018)

What was measured:
[1] = system: human CD34+ 38- 90+ HSC enriched population; assay: cell cycle status of HSCs (Ki67 / Hoechst), flow cytometry; type: cell-based; details: for G0 quiescent phase of untransduced and transduced HSCs: early time period of ex vivo culture
Method: (§1) Human MPB derived CD34^+ cells were cultured and transduced with lentivirus (LV) or retrovirus (RV) for the indicated time points. Representative Immunofluorescence images of sorted human CD34^+ 38^− 90^+ population treated with or without p38i for 72 hours stained with anti-γH2AX and 53BP1 (Panel A) and quantification of γ-H2AX (Panel B) and 53BP1 (Panel C) MFI/cell. Panel D: Representative histogram plot from flow cytometric analysis of CD34^+ 38^− 90^+ HSC enriched cells stained for γ-H2AX with or without p38 inhibitor (p38i) and quantification of fold change in mean fluorescence intensity (MFI) of γ-H2AX in HSCs (Panel E) and percent GH2AX^+ cells (Panel F) at indicated time period. Percentage shown in histograms are cells positive for γH2AX and the numbers below is mean fluorescent intensity (MFI) (n=5 independent experiments). FACS plot representing HSCs in G0 (Quiescent), G1, and S-G2-M phase of cell cycle with or without p38i (Panel G) and quantification (Panel H) of HSC enriched population at different cell cycle phase at indicated time of ex vivo culture. Percentage of (±SEM) Ki67^− (G0) and Ki67^+ (G1-S-G2-M) HSCs is depicted on the y-axis. (n=4 independent experiments for 24 h LV and n=5 independent experiments for 42 h LV and 72 h RV)). Statistics: paired Student's t test, *p<0.05, **p<0.01, ***p<0.001.
(§2) Human MPB derived CD34^+ cells were cultured and transduced as described in FIG. 17. Panel A: Quantification of γ-H2AX^+ CD34^+ 38^− 90^+ cells at 24, 42, & 72 hours. n=5-8 independent experiments/condition). Panel B: Quantification of immunofluorescence analysis for γ-H2AX (left) and 53BP1 (right) MFI per sorted human CD34^+ 38^− 90^+ cell with or without p38i for 42 hours. Panel C: Quantitative plot representing CD34^+ 38^− 90^+ cells in G0-G1, and S-G2-M phase of cell cycle with or without p38i at 42 hours of ex vivo culture and lentivirus (LV) transduction. (n=6 independent experiments/condition). Statistics: paired Student's t test, *p<0.05, **p<0.01, ***p<0.001. Statistics: Student's t test, *p<0.05, **p<0.01, ***p<[…].
Ki67, a nuclear antigen associated with cell proliferation, was used to determine cell cycle status via flow cytometry; negative stains were considered to represent quiescent HSCs.

[2] = system: human CD34+ 38- 90+ HSC enriched population; assay: DNA damage response (gamma-H2AX, 53BP1) by immunofluorescence and flow cytometry; type: cell-based
Method: as §1, §2
Human BM derived CD34 cells were cultured and transduced with lentivirus (LV) for 48 hours. Representative FACS plot representing bone marrow derived HSC enriched CD34^+ 38^− 90^+ population in G0 (Quiescent), G1, and S-G2-M phase of cell cycle with or without p38i (left) and the corresponding representative histogram plot of γH2AX at indicated time and treatment. Percentage shown in histogram refers to cells positive for γH2AX and the numbers below is mean fluorescent intensity (MFI).
p38 inhibition maintains the quiescent phase of HSCs and reduces DNA damage response (DDR) early in culture. Cell cycle entry and gene manipulation induces a DDR in human HSCs that is reduced by inhibiting p38MAPK early in culture. DNA double-strand breaks in Human HSCs were assessed by γ-H2AX staining, a sensitive and specific indicator of DNA double-strand breaks.

[3] = before the first HSC division (24 h)

## Cc1ccc(-n2nc(C(C)(C)C)cc2NC(=O)Nc2ccc(OCCN3CCOCC3)c3ccccc23)cc1 [BIRB-796, 1-[5-tert-butyl-2-(4-methylphenyl)pyrazol-3-yl]-3-[4-(2-morpholin-4-ylethoxy)naphthalen-1-yl]urea]
[1]; after 24 h, as HSC progressed through cell cycle
  effect on HSC cell cycle: lost
[1]; [3]
  proportion of HSC in the G0 quiescent phase: significantly increased
  proportion of HSC in the S-G2-M phase: decreased
[1]
  G0 quiescent phase of untransduced and transduced HSCs: maintain
[1]; listed as p38i
  G0 quiescent phase of untransduced and transduced HSCs: retains
[2]; 36-42 h and 72-96 h groups
  percentage of γH2AX+ cells: significantly reduced
[2]; 24 hours of culture, flow cytometry
  γH2AX staining: returned to levels seen in unmanipulated HSC
[2]; MPB derived CD34+ 38- 90+ cells, ex vivo culture and gene transfer
  DNA Damage Response (DDR): reduces
[2]; bone marrow (BM) derived CD34+ 38- 90+ cells, LV 48 hours
  DNA Damage Response (DDR): reduces
[2]; cultured and transduced for 36-42 hours or 72 hours
  γH2AX foci (DNA damage response): rescued
